Results reported in patent US8791132B2, “Compounds and methods for treatment of hypertension” (Medivation Technologies, Inc., priority 2011, dated 2014).
pKi: −log10 of the molar value. Several values for one entry are separate records, joined by “and”; a condition that tells them apart may be missing. Equal values may be shown once.

Columns and labels:
[1] = target: T1, human recombinant adrenergic α2B receptor (Homo sapiens, UniProt P18089); test: Radioligand binding, adrenergic α2B ([3H]Rauwolscine); details: for inhibition at 0.1 µM: read-out: Percentage inhibition of ligand binding, Adrenergic α2B (0.1 μM), compound at 0.1 μM; for inhibition at 0.03 µM: read-out: Percentage inhibition of ligand binding, Adrenergic α2B (0.03 μM), compound at 0.03 μM
T1 construct: expressed in transfected cells; host or cells: CHO-K1
T1 sequence (P18089 1-450): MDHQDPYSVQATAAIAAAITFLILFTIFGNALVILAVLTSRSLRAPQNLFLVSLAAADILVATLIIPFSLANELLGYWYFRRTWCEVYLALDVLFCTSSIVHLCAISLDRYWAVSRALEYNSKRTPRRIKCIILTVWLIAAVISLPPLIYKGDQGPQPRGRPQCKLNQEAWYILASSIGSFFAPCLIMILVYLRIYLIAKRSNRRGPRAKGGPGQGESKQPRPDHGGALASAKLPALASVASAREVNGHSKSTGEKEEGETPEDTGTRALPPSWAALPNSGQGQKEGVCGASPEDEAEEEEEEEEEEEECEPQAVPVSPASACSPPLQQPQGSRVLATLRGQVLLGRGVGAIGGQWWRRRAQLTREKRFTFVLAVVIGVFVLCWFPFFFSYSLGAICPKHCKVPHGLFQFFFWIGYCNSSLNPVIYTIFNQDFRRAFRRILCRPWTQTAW
How it was run: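 Receptor expressed in CHO-K1 cells, assayed in 50 mM Tris-HCl pH 7.4 with 12.5 mM MgCl2, 1 mM EDTA and 0.2% BSA. Compounds were incubated with 2.5 nM [3H]Rauwolscine for 60 min at 25° C; 10 μM Prazosin defined non-specific binding. Filter counting gave percent inhibition of specific binding.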

[2] = target: T2, rat adrenergic α1B receptor (Rattus norvegicus, UniProt P15823); test: Radioligand binding, adrenergic α1B ([3H]Prazosin); details: [3H]Prazosin, repeat datapoints each shown; for inhibition at 0.1 µM: read-out: Percentage inhibition of ligand binding, Adrenergic α1B (0.1 μM), compound at 0.1 μM; for inhibition at 0.03 µM: read-out: Percentage inhibition of ligand binding, Adrenergic α1B (0.03 μM), compound at 0.03 μM
T2 construct: rat adrenergic α1B receptor obtained from Wistar Rat liver; from tissue; host or cells: Wistar rat liver
T2 sequence (P15823 1-515): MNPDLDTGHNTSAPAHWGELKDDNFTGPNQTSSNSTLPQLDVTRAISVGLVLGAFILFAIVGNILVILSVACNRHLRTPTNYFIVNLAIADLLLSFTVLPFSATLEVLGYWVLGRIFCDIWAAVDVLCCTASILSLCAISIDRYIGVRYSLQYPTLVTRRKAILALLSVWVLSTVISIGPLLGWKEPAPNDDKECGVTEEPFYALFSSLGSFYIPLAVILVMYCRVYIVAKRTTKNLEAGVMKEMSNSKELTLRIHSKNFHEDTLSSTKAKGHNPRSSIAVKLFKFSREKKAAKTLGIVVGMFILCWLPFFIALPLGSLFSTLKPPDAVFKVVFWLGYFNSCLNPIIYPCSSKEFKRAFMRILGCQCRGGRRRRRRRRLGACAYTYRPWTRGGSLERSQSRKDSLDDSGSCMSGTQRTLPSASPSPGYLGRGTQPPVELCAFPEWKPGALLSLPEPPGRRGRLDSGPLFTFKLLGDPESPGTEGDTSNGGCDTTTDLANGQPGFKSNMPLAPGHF
How it was run: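 Specific binding, taken as total minus that remaining with 10 μM phentolamine, is measured after filtration and counting. Rat liver receptor preparation and 0.25 nM [3H]prazosin are incubated with compound in 50 mM Tris-HCl (pH 7.4, 0.5 mM EDTA) at 25° C for 60 min. Activity is reported as percent inhibition.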

[3] = target: T3, human recombinant adrenergic α2A receptor (Homo sapiens, UniProt P08913); test: Radioligand binding, adrenergic α2A ([3H]MK-912); details: for inhibition at 0.1 µM: read-out: Percentage inhibition of ligand binding, Adrenergic α2A (0.1 μM), compound at 0.1 μM; for inhibition at 0.03 µM: read-out: Percentage inhibition of ligand binding, Adrenergic α2A (0.03 μM), compound at 0.03 μM
T3 construct: expressed in transfected cells; host or cells: insect Sf9 cells
T3 sequence (P08913 1-465): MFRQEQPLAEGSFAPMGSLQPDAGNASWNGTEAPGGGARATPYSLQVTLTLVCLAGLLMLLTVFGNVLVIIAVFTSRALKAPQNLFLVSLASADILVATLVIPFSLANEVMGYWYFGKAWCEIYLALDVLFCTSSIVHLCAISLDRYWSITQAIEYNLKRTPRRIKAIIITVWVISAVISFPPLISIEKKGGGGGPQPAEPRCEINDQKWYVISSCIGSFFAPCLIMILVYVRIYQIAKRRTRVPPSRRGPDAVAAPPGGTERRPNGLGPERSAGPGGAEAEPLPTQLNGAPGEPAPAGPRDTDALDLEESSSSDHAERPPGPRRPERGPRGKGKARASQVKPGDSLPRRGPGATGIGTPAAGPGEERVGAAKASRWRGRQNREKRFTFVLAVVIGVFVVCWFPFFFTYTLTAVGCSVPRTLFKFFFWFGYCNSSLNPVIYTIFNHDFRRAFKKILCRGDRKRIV
How it was run: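 Receptor expressed in Sf9 cells, in 50 mM Tris-HCl pH 7.4, 12.5 mM MgCl2, 2 mM EDTA; compounds incubated with 1 nM [3H]MK-912 for 60 min at 25 °C.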

[4] = target: T4, human recombinant adrenergic α1D receptor (Homo sapiens, UniProt P25100); test: Radioligand binding, adrenergic α1D ([3H]Prazosin); details: [3H]Prazosin, repeat datapoints each shown; for inhibition at 0.1 µM: read-out: Percentage inhibition of ligand binding, Adrenergic α1D (0.1 μM), compound at 0.1 μM; for inhibition at 0.03 µM: read-out: Percentage inhibition of ligand binding, Adrenergic α1D (0.03 μM), compound at 0.03 μM
T4 construct: expressed in transfected cells; host or cells: HEK-293
T4 sequence (P25100 1-572): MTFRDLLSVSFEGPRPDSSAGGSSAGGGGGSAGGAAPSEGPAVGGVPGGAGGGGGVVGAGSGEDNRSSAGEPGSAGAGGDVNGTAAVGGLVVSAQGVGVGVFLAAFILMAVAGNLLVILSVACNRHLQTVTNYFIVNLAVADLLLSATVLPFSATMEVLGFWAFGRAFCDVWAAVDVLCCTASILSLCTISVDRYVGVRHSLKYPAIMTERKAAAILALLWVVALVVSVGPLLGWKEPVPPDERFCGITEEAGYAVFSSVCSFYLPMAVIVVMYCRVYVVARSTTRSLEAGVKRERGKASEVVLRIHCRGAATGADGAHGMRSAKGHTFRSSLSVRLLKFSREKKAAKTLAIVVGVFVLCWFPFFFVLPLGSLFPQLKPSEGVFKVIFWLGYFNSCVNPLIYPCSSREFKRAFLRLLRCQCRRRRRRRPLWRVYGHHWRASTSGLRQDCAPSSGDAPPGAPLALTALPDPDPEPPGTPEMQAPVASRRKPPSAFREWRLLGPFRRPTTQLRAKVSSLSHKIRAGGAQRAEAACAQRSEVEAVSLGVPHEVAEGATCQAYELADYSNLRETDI
Description: Compounds were incubated with 0.6 nM [3H]Prazosin for 60 min at 25° C. Non-specific binding was estimated in the presence of 10 μM phentolamine. Receptor proteins were filtered and washed, the filters were then counted to determine [3H]Prazosin specifically bound. […] Biochemical assay results are presented as the percent inhibition of specific binding in Table B1.

[5] = [3H]Rauwolscine, repeat datapoints each shown
[6] = [3H]MK-912, repeat datapoints each shown

Row | Compound | inhibition at 0.1 µM [1, 5] | inhibition at 0.1 µM [2] | inhibition at 0.1 µM [3, 6] | inhibition at 0.1 µM [4] | inhibition at 0.03 µM [1, 5] | inhibition at 0.03 µM [2] | pKi [3] | inhibition at 0.03 µM [4] | Percentage inhibition of ligand binding, Adrenergic α2A (0.1 μM) ([3]; compound at 0.1 μM, [3H]MK-912, repeat datapoints each shown, 0.1 µM) | inhibition at 0.03 µM [3, 6] | Percentage inhibition of ligand binding, Adrenergic α2B (0.1 μM) ([1]; compound at 0.1 μM, [3H]Rauwolscine, repeat datapoints each shown, 0.1 µM) | pKi ([1]; read-out: Ki α2B)
1 | CC(=O)Nc1ccc(/C(C)=C\n2c3c(c4cc(C)ccc42)CN(C)CC3)cn1 [compound 111] | 65% | 56% | 0% | 77% | – | – | – | – | – | – | – | –
2 | CC(=O)Nc1ccc(/C(C)=C/n2c3c(c4cc(C)ccc42)CN(C)CC3)cn1 [compound 112] | 79% | 44% | 26% | 40% | – | – | – | – | – | – | – | –
3 | C/C(=C\n1c2c(c3cc(C)ccc31)CN(C)CC2)c1cccc2ccccc12 [compound 113] | 87% | 12% | 29% | 3% | – | – | – | – | – | – | – | –
4 | C/C(=C\n1c2c(c3cc(C)ccc31)CN(C)CC2)c1cn[nH]c1 [compound 115] | 94% | 19% | 21% | 24% | – | – | – | – | – | – | – | –
5 | C=C(Cn1c2c(c3cc(Cl)ccc31)CN(C)CC2)c1ccncc1 [compound 116] | 75% | 23% | 22% | 26% | – | – | – | – | – | – | – | –
6 | C=C(n1ccnc1)n1c2c(c3cc(C)ccc31)CN(C)CC2 [compound 118, 5-(1-imidazol-1-yl-vinyl)-2,8-dimethyl-2,3,4,5-tetrahydro-1H-pyrido[4,3-b]indole] | 60% | 35% | 19% | 7% | – | – | – | – | – | – | – | –
7 | Cc1ccc(CCn2c3c(c4ccc(C(F)(F)F)cc42)CN(C)CC3)cn1 [compound 119] | 60% | 14% | 14% | -6% | – | – | – | – | – | – | – | –
8 | C=C(Cn1c2c(c3cc(C)ccc31)CN(C)CC2)c1ccncc1 [compound 121] | 88% | 6% | 16% | 44% | – | – | – | – | – | – | – | –
9 | CNC(=O)c1ccc(/C(C)=C/n2c3c(c4cc(C)ccc42)CN(C)CC3)cn1 [compound 122] | 96% | 51% | 13% | 84% | – | – | – | – | – | – | – | –
10 | C/C(=C\n1c2c(c3cc(C)cnc31)CN(C)CC2)c1ccncc1 [compound 124] | 63% | 19% | -2% | 12% | – | – | – | – | – | – | – | –
11 | C/C(=C\n1c2c(c3cc(C)ccc31)CN(C)CC2)c1ccc(CO)nc1 [compound 125, (E)-(5-(1-(2,8-dimethyl-3,4-dihydro-1H-pyrido[4,3-b]indol-5(2H)-yl)prop-1-en-2-yl)pyridin-2-yl)methanol] | 68% | -3% | -4% | 1% | – | – | – | – | – | – | – | –
12 | COCc1ccc(/C(C)=C/n2c3c(c4cc(C)ccc42)CN(C)CC3)cn1 [compound 126] | 82% | 30% | 12% | 46% | – | – | – | – | – | – | – | –
13 | C/C(=C\n1c2c(c3cc(C)cc(C)c31)CN(C)CC2)c1ccc(C)nc1 [compound 188] | 105% | 60% | – | 48% | – | – | – | – | 66% and 90% | 35% | – | –
14 | C/C(=C\n1c2c(c3cc(C)ccc31)C1CCCN1CC2)c1ccc(C)nc1 (centres unmarked) [compound 193, 10-methyl-7-(2-(6-methylpyridin-3-yl)prop-1-enyl)-2,3,5,6,7,11c-hexahydro-1H-indolizino[7,8-b]indole] | 103% | 93% | 77% | 88% | – | – | – | – | – | – | – | –

The next lines start with the values.

Row | inhibition at 0.1 µM [1, 5] | inhibition at 0.1 µM [2] | inhibition at 0.1 µM [3, 6] | inhibition at 0.1 µM [4] | inhibition at 0.03 µM [1, 5] | inhibition at 0.03 µM [2] | pKi [3] | inhibition at 0.03 µM [4] | Percentage inhibition of ligand binding, Adrenergic α2A (0.1 μM) ([3]; compound at 0.1 μM, [3H]MK-912, repeat datapoints each shown, 0.1 µM) | inhibition at 0.03 µM [3, 6] | Percentage inhibition of ligand binding, Adrenergic α2B (0.1 μM) ([1]; compound at 0.1 μM, [3H]Rauwolscine, repeat datapoints each shown, 0.1 µM) | pKi ([1]; read-out: Ki α2B) | Compound
15 | – | – | 93% | – | 95% | 60% | 6.74 | 24% | – | – | – | – | Cc1ccc2c(c1)c1c(n2CCc2ccc(Cl)cc2)CCN(C)C1 [compound 184, 5-(4-Chlorophenethyl)-2,3,4,5-tetrahydro-2,8-dimethyl-1H-pyrido[4,3-b]indole]
16 | 102% | – | 86% | – | – | 46% | 8.95 and 8.17 | 42% | – | – | – | – | Cc1ccc2c(c1)c1c(n2CCc2ccc(F)cc2)CCN(C)C1 [compound 206]
17 | 106% | – | 90% | – | – | 49% | 8.94 | 39% | – | – | – | – | CN1CCc2c(c3cc(Cl)ccc3n2CCc2ccccc2)C1 [compound 207]
18 | 97% | – | 101% | – | – | 60% | – | 41% | – | – | – | – | Cc1ccc(CCn2c3c(c4cc(Cl)ccc42)CN(C)CC3)cc1 [compound 208]
19 | – | – | 98% | – | 26% | 53% | – | 53% | – | – | 68% and 97% | 7.58 | CN1CCc2c(c3cc(Cl)ccc3n2CCc2ccc(Cl)cc2)C1 [compound 213]
20 | – | – | – | – | 110% | 79% | – | 60% | – | 85% | – | – | COc1ccc(CCn2c3c(c4cc(C)ccc42)CN(C)CC3)cc1 [compound 218]
